Reference: article PMC11661808 (ADMET & DMPK, 2024)
Like-named read-outs stand apart in the source and are kept apart here.

Experiments:
[1] = Ketoconazole concentration in plasma and ocular tissues after single topical ocular instillation; assay type: in vivo, Sprague Dawley rats; details: for concentration at 5 min / concentration at 120 min / concentration at 30 min: Sprague Dawley, rat, topical; for concentration at 120 min: 120 min post-dose; for concentration at 30 min: 30 min post-dose
Experimental: The mixture was stirred at 40 °C. Subsequently, 0.040 mL of 1 M hydrochloric acid was added, and the mixture was stirred at 40 °C until it was completely dissolved. 0.250 mL of hydroxypropyl beta-cyclodextrin (HPβCD) was added and vortexed and stirred at 40 °C until clear. 0.005 mL of 1 M sodium hydroxide was added to adjust the pH to 6.5-7.0 while stirring magnetically at 40 °C, and 0.038 mL of water was added, vortexed, and stirred at 40 °C until clear.
Each tissue was then homogenized using an Ultrasonic Cell Crusher for 5 seconds. The cornea and retina homogenates were sonicated for 10 min, while the vitreous was sonicated for 30 min at 0 °C prior to bioanalysis. The ocular tissue homogenates were stored in a -80 °C freezer before bioanalysis.
All samples underwent protein precipitation for pharmacokinetic analysis. Plasma and three types of tissue homogenate samples (50 μL each) were treated with 5 μL of methanol and then quenched with a 200 μL methanol and acetonitrile mixture (1:1, v/v) containing 50 ng/mL terfenadine as an internal standard (ISTD). After vortexing for 1 min and centrifuging at 4000 rpm for 15 min, the supernatant was transferred and diluted 10-fold with a methanol/water solution (1:1, v/v, containing 0.1 % formic acid) for LC-MS/MS analysis. The working solution was prepared with a concentration range of 50.0 to 100,000 ng/mL.
The quantitative sample analysis was performed on a Shimadzu LC-20AD (Shimadzu, Japan) - API 4000 mass spectrometer (SCIEX, Canada).

[2] = humans, cited from earlier work
[3] = in vivo
Experimental: (§1) Nine rats were randomly divided into three groups and their body weights were recorded from 254 to 281 g. […] Rats were sacrificed at 5, 30 and 120 min post-dose (n = 3 per time point). Cornea, retina, and vitreous humour samples were collected, washed in saline three times and weighed, while blood samples were taken from the heart puncture. Tissue samples were initially stored on dry ice, while the blood samples were centrifuged at 4 °C and 6000 rpm for 10 min. Subsequently, the plasma samples were prepared and also stored on dry ice. Ultimately, all samples were cryopreserved in a -80 °C freezer after harvest.
(§2) Rat plasma (400 RL, 44.4 LL/rat at each time point) was pooled from 3-time points utilizing the equal volume method and subsequently precipitated with acetonitrile containing 0.1 % formic acid at a ratio of 1:3. Homogenate samples of rat cornea, retina, and vitreous humour (600 L, 66.7 LL /rat) were pooled from three time points individually utilizing the equal volume and transferred into a 15 mL centrifuge tube and subjected to precipitation with acetonitrile containing 0.1 % formic acid at the same ratio of 1:3. Following centrifugation, the supernatant was evaporated under a stream of nitrogen gas. The residues from plasma and rat retina were reconstituted with 150 L of 10 % acetonitrile in H2O (with 0.1 % formic acid), while the residues from the rat cornea and vitreous humour were reconstituted with 100 L of 10 % acetonitrile in H2O (0.1 % formic acid). Four types of blank samples were processed in a similar manner. Ultimately, 10,L samples of each tissue were injected for analysis using the Ultimate 3000-Q-Exactive Plus system.
(§3) Mobile phase A consisted of water containing 0.1 % formic acid, while mobile phase B consisted of acetonitrile with 0.1 % formic acid. […] Mass scanning was performed on the Q-Exactive Plus using positive-ion full MS/dd-MS2 mode with a range from m/z 80 to 900. The collision energy was set at 30, 40 and 50 eV. The mass resolution was set as 70,000 for full MS, and 17,500 for dd-MS2 scans, and the mass error limit was set as 5.0 ppm.

[4] = Metabolite identification and profiling in pooled rat plasma, cornea, retina and vitreous humour after eye drop administration; details: for Relative peak area abundance, COR: pooled rat cornea homogenate (5, 30, 120 min); for Relative peak area abundance, VH: pooled rat vitreous humour homogenate (5, 30, 120 min); for Relative peak area abundance, PLA: pooled rat plasma (5, 30, 120 min)
Experimental: as §1, §2, §3

[5] = plasma, 300 μg per rat, rat plasma, read-out: mean concentration in plasma
[6] = selected ion chromatographic peak areas

With `CC(=O)N1CCN(c2ccc(OCC3COC(Cn4ccnc4)(c4ccc(Cl)cc4Cl)O3)cc2)CC1` (centres unmarked) [Ketoconazole] as the compound, how does the concentration at 5 min ([1]; cornea, 150 μg per eye, rat cornea, left eye, 5 min post-dose, 150 μg per eye, read-out: mean concentration in cornea, left eye) read?
Its concentration at 5 min is 416000 ng/g.

And the concentration at 5 min ([1]; cornea, 150 μg per eye, rat cornea, right eye, 5 min post-dose, 150 μg per eye, read-out: mean concentration in cornea, right eye)?
Its concentration at 5 min is 430000 ng/g.

What about the concentration at 5 min ([1]; cornea, 300 μg per rat, mean ketoconazole concentration in cornea, rat cornea, 5 min post-dose, 300 μg/rat topical ocular) of the same compound?
The concentration at 5 min was 423000 ng/g.

What about the concentration at 120 min ([1]; cornea, 300 μg per rat, mean ketoconazole concentration in cornea, rat cornea, mean of left and right eye) of the same compound?
The concentration at 120 min was 8360 ng/g.

And the concentration at 30 min ([1]; cornea, 300 μg per rat, rat cornea, mean of left and right eye, read-out: mean concentration in cornea)?
Its concentration at 30 min is 113000 ng/g.

What about the concentration at 120 min ([1]; plasma, 300 μg per rat, mean ketoconazole concentration in plasma, rat plasma, 300 μg/rat topical ocular) of the same compound?
The concentration at 120 min was 38.4 ng/mL.

And the concentration at 5 min ([1]; plasma, 300 μg per rat, rat plasma, 5 min post-dose, read-out: mean concentration in plasma)?
Its concentration at 5 min is 445 ng/mL.

And the concentration at 30 min [1, 5]?
Its concentration at 30 min is 303 ng/mL.

What about the concentration at 120 min [1, 5] of the same compound?
The concentration at 120 min was 38.4 ng/mL.

What about the concentration at 5 min ([1]; retina, 150 μg per eye, rat retina, left eye, 5 min post-dose, 150 μg per eye, read-out: mean concentration in retina, left eye) of the same compound?
Its concentration at 5 min is 439 ng/g.

And the concentration at 5 min ([1]; retina, 150 μg per eye, rat retina, right eye, 5 min post-dose, 150 μg per eye, read-out: mean concentration in retina, right eye)?
The concentration at 5 min was 552 ng/g.

What about the concentration at 5 min ([1]; retina, 300 μg per rat, mean ketoconazole concentration in retina, rat retina, 5 min post-dose, 300 μg/rat topical ocular) of the same compound?
The concentration at 5 min was 4960 ng/g.

And the concentration at 120 min ([1]; retina, 300 μg per rat, mean ketoconazole concentration in retina, rat retina, mean of left and right eye)?
The concentration at 120 min was 94.4 ng/g.

And the concentration at 30 min ([1]; retina, 300 μg per rat, rat retina, mean of left and right eye, read-out: mean concentration in retina)?
Its concentration at 30 min is 1470 ng/g.

And the concentration at 5 min ([1]; vitreous humour, 150 μg per eye, rat vitreous humour, left eye, 5 min post-dose, 150 μg per eye, read-out: mean concentration in vitreous humour, left eye)?
The concentration at 5 min was 1120 ng/g.

And the concentration at 5 min ([1]; vitreous humour, 150 μg per eye, rat vitreous humour, right eye, 5 min post-dose, 150 μg per eye, read-out: mean concentration in vitreous humour, right eye)?
The concentration at 5 min was 1180 ng/g.

What about the concentration at 5 min ([1]; vitreous humour, 300 μg per rat, mean ketoconazole concentration in vitreous humour, rat vitreous humour, 5 min post-dose, 300 μg/rat topical ocular) of the same compound?
Its concentration at 5 min is 1190 ng/g.

What about the concentration at 120 min ([1]; vitreous humour, 300 μg per rat, mean ketoconazole concentration in vitreous humour, rat vitreous humour, mean of left and right eye) of the same compound?
The concentration at 120 min was 116 ng/g.

What about the concentration at 30 min ([1]; vitreous humour, 300 μg per rat, rat vitreous humour, mean of left and right eye, read-out: mean concentration in vitreous humour) of the same compound?
The concentration at 30 min was 713 ng/g.

What about the “mean peak plasma concentration” value ([1]; rat plasma, 5 min post-dose, 300 μg/rat topical ocular) of the same compound?
The value was 445 ng/mL.

What about the “biphasic elimination, thereafter” value ([2]; after the first 10 h) of the same compound?
Its value is 8 h.

And the “biphasic elimination, during the first 10 h” value ([2]; first 10 h)?
Its value is 2 h.

What about the “time to maximum plasma concentration” value [2] of the same compound?
The value was 1 to 2 h.

Which “detection in rat plasma” value ([3]; Sprague Dawley) does the source give for `Clc1ccc([C@@]2(Cn3ccnc3)OC[C@H](COc3ccc(N4CCNCC4)cc3)O2)c(Cl)c1` [M4 (DAK), N-deacetyl ketoconazole] here?
Its value is “No N-deacetyl ketoconazole (M4) was found”.

And the “Relative peak area abundance, COR” value ([3]; Sprague Dawley, rat)?
The value was 0.2%.

What about the “detection in rat plasma” value [3] of the same compound?
The value was “not detected”.

With `CC(=O)N1CCN(c2ccc(OC[C@H]3CO[C@](Cn4ccnc4)(c4ccc(Cl)cc4Cl)O3)cc2)CC1O` (some centres unmarked) [Metabolite M1] as the compound, how does the “Relative peak area abundance, COR” value [4, 6] read?
The value was “D (detected in trace amount (the relative abundance was less than 0.1 %))”.

What about the “Relative peak area abundance, VH” value [4, 6] of the same compound?
The value was “D (detected in trace amount (the relative abundance was less than 0.1 %))”.

Which “Relative peak area abundance, COR” value [4, 6] does the source give for `OC[C@H]1CO[C@](Cn2ccnc2)(c2ccc(Cl)cc2Cl)O1` [Metabolite M2] here?
The value was 1.1%.

And the “Relative peak area abundance, PLA” value [4, 6]?
Its value is 0.1%.

And the “Relative peak area abundance, RET” value ([4]; pooled rat retina homogenate (5, 30, 120 min), selected ion chromatographic peak areas)?
The value was 1.2%.

What about the “Relative peak area abundance, VH” value [4, 6] of the same compound?
The value was 0.6%.

And the “abundance of dominant metabolite in cornea, retina” value ([4]; rat cornea, retina)?
Its value is 1.1-1.2%.

For `CC(=O)N1CCN(c2ccc(OC[C@H]3CO[C@](CN)(c4ccc(Cl)cc4Cl)O3)cc2)CC1` [Metabolite M6], which “Relative peak area abundance, COR” value [4, 6] is on record?
The value was 0.1%.

And the “Relative peak area abundance, PLA” value [4, 6]?
The value was 0.6%.
